From patent US20240316059A1, “PEPTIDE DRUG CONJUGATES” (Oncopeptides AB, priority 2021, published 2024)
Like-named read-outs stand apart in the source and are kept apart here.

Tests used:
MM.1S cells [1] = experiment: In vitro cytotoxic potency in MM.1S cell viability assay (CellTiter-Glo); type: cell-based, human; conditions: Homo sapiens, MM1.S, 72 h
Description: Methods: MM.1S Cells were cultivated in RPMI medium 1640 (IX) supplemented with 10 μg/μL penicillin/streptomycin, 10% heat inactivated FBS, 0.1 mM Sodium Pyruvate, 1×MEM NEAA (ThermoFisher) and 1 mM HEPES. Cells were grown to reach log phase before being exposed to the test compounds.
(§1) Test compounds (Example compounds 1 to 36, 38 to 41 and 45 to 48) and comparative compounds (bendamustine, busulfan, melphalan, chlorambucil and 4-hydroperoxy cyclophosphamide) were dissolved in 100% DMSO and added to a 384 assay plate. Additional DMSO was added to maintain the same final DMSO concentration (0.2%) in all wells. 25 μL cell suspension with a concentration of 100000 cells/mL was added to each well. The cells were cultured in a CO2 incubator at 37° C. for 72 h. Plates were equilibrated to room temperature for 30 minutes before adding 20 μL CellTiter-Glo® 2.0 (Promega) reagent to all wells. The plate was then allowed to stabilize for 20 minutes before recording the luminescence (emission filter 700 nm) in an Envision plate reader.
(§2) All cells were cultivated in RPMI medium 1640 (IX). All media was supplemented with 10 μg/μl penicillin/streptomycin, 10% heat inactivated FBS, 0.1 mM Sodium Pyruvate, 1×MEM NEAA (ThermoFisher) and 1 mM HEPES. The DERL-2 cells had higher FBS (20%) and 40 ng/mL IL-2 was added. hPBMCs were thawed and allowed to acclimatise overnight and then stimulated with 10 μg/mL PHA-M and 40 ng/mL IL-2 for 4 hours before being exposed to test compounds. All cells, except for hPBMCs, were grown to reach log phase before being exposed to the test compounds.
as §1, with “compounds” for “compounds (Example compounds 1 to 36, 38 to 41 and 45 to 48) and comparative compounds (bendamustine, busulfan, melphalan, chlorambucil and 4-hydroperoxy cyclophosphamide)”, “(Em” for “(emission”

MM.1S cells [2] = experiment: Cellular retention/efflux: intracellular and extracellular concentrations by LC-MS/MS; type: in vitro ADME, human; conditions: metabolites measured after treatment with the parent Example compound
Description: Methods: MMA1S cells at 2×10^6 cells/mL were seeded at 250 μL per well in a 96-well plate. Cells were incubated in the presence of a test compound for 5, 15, and 60 min before pelleting cells by centrifugation at +4° C. for 5 min. Cell media was immediately harvested to a second plate and stored at −80° C. until further analysis. Pelleted cells were washed once with ice cold PBS before storage at −80° C. until further analysis.
Cells were lysed and protein in the media were precipitated using acetonitrile dimethylformamide, 9:1 containing internal standard. Samples were centrifuged and the supernatant was analyzed with LC-MS/MS (ACQUITY UPLC-Xevo TQ-S micro) to determine compound concentration.
Example compound 1, bendamustine and melphalan were used as test compounds.
Method: Method described in Biological example 3.
Example compounds 1, 2, 3, 4, 6, 7 and 10 were investigated. Intracellular metabolites are formed from all compounds tested. The compound used for cell treatment was metabolised to the ester-hydrolysed compound (here called Metabolite A) and to the amide-hydrolysed compound (called Metabolite B). The example compound structures and the structures of the two metabolites for the respective compounds were as shown in Table 4. The Metabolites B formed under the conditions tested were compounds with structure as Examples 17 and 18: […]

[3] = system: DNA prepared from MM.1S cells (nuclear HPRT and mitochondrial DNA); experiment: Direct DNA damage, PCR amplification of treated DNA (HPRT and mtDNA primers); type: biochemical, human; conditions: 0.25 μM compound, 30 minutes, 37° C., 1 μg DNA
Description: Method: DNA was prepared from MM.1S cells by QIAGEN genomic tip 20/G according to protocol described in Furda et al., Methods Mol Biol, 2012. 1 μg of DNA was treated with 0.25 μM compound for 30 minutes at 37° C. DMSO was used as control treatment. 20 ng of the treated DNA was PCR amplified using Phusion Hot Start II High Fidelity PCR Master Mix (Thermo Scientific) and primers directed to either HPRT or primers directed to mitochondrial DNA (mtDNA) was used, generating 10.4 or 8.9 kb fragments, respectively. The PCR reactions were separated on a 1% agarose gel and visualized by ChemiDoc™ MP Imaging System (BioRad). Example compounds 1, 2 and 38 were investigated, as were compounds 18 and 20, which are metabolites of compound 1. They were compared with bendamustine, melphalan and DMSO control. The results for compounds 1, 2, 18 and 20 with the HPRT primers are shown in FIG. 4(A); the results with the mtDNA primers are shown in FIG. 4(B).

U937 = experiment: In vitro cytotoxicity, U937 (Histiocytic Lymphoma); type: cell-based; conditions: Homo sapiens, U-937; 72 h, CellTiter-Glo 2.0; read-out: Cytotoxicity IC50, U937
Description: as §2
as §1, with “compounds” for “compounds (Example compounds 1 to 36, 38 to 41 and 45 to 48) and comparative compounds (bendamustine, busulfan, melphalan, chlorambucil and 4-hydroperoxy cyclophosphamide)”, “(Em” for “(emission”

RPMI-8226 = experiment: In vitro cytotoxicity, RPMI-8226 (Multiple Myeloma, resistant); type: cell-based; conditions: Homo sapiens, RPMI-8226; 72 h, CellTiter-Glo 2.0; read-out: Cytotoxicity IC50, RPMI-8226
Description: as §2
as §1, with “compounds” for “compounds (Example compounds 1 to 36, 38 to 41 and 45 to 48) and comparative compounds (bendamustine, busulfan, melphalan, chlorambucil and 4-hydroperoxy cyclophosphamide)”, “(Em” for “(emission”

SK-MM-1 = experiment: In vitro cytotoxicity, SK-MM-1 (Plasma Cell Leukemia); type: cell-based; conditions: Homo sapiens; 72 h, CellTiter-Glo 2.0; read-out: Cytotoxicity IC50, SK-MM-1
Description: as §2
as §1, with “compounds” for “compounds (Example compounds 1 to 36, 38 to 41 and 45 to 48) and comparative compounds (bendamustine, busulfan, melphalan, chlorambucil and 4-hydroperoxy cyclophosphamide)”, “(Em” for “(emission”

DOHH-2 = experiment: In vitro cytotoxicity, DOHH-2 (B Cell Lymphoma); type: cell-based; conditions: Homo sapiens, DOHH-2; 72 h, CellTiter-Glo 2.0; read-out: Cytotoxicity IC50, DOHH-2
Description: as §2
as §1, with “compounds” for “compounds (Example compounds 1 to 36, 38 to 41 and 45 to 48) and comparative compounds (bendamustine, busulfan, melphalan, chlorambucil and 4-hydroperoxy cyclophosphamide)”, “(Em” for “(emission”

HG-3 = experiment: In vitro cytotoxicity, HG-3 (Chronic Lymphocytic Leukemia); type: cell-based; conditions: Homo sapiens, HG-3; 72 h, CellTiter-Glo 2.0; read-out: Cytotoxicity IC50, HG-3
Description: as §2
as §1, with “compounds” for “compounds (Example compounds 1 to 36, 38 to 41 and 45 to 48) and comparative compounds (bendamustine, busulfan, melphalan, chlorambucil and 4-hydroperoxy cyclophosphamide)”, “(Em” for “(emission”

SC-1 = experiment: In vitro cytotoxicity, SC-1 (B cell Lymphoma); type: cell-based; conditions: Homo sapiens, SC-1; 72 h, CellTiter-Glo 2.0; read-out: Cytotoxicity IC50, SC-1
Description: as §2
as §1, with “compounds” for “compounds (Example compounds 1 to 36, 38 to 41 and 45 to 48) and comparative compounds (bendamustine, busulfan, melphalan, chlorambucil and 4-hydroperoxy cyclophosphamide)”, “(Em” for “(emission”

SU-DHL-8 = experiment: In vitro cytotoxicity, SU-DHL-8 (B-cell non-Hodgkin Lymphoma); type: cell-based; conditions: Homo sapiens, SU-DHL-8; 72 h, CellTiter-Glo 2.0; read-out: Cytotoxicity IC50, SU-DHL-8
Description: as §2
as §1, with “compounds” for “compounds (Example compounds 1 to 36, 38 to 41 and 45 to 48) and comparative compounds (bendamustine, busulfan, melphalan, chlorambucil and 4-hydroperoxy cyclophosphamide)”, “(Em” for “(emission”

Toledo = experiment: In vitro cytotoxicity, Toledo (Diffuse Large B Cell Lymphoma); type: cell-based; conditions: Homo sapiens, 72 h, CellTiter-Glo 2.0, read-out: Cytotoxicity IC50, Toledo
Description: as §2
as §1, with “compounds” for “compounds (Example compounds 1 to 36, 38 to 41 and 45 to 48) and comparative compounds (bendamustine, busulfan, melphalan, chlorambucil and 4-hydroperoxy cyclophosphamide)”, “(Em” for “(emission”

SMILES | IC50 (MM.1S cells [1]; read-out: MM.1S IC50) [nM] | further results
Cn1c(CC[C@H](N)C(=O)O)nc2cc(N(CCCl)CCCl)ccc21 [Example 18, (S)-2-amino-4-(5-(bis(2-chloroethyl)amino)-1-methyl-1H-benzo[d]imidazol-2-yl)butanoic acid] | 20200 | Intracellular concentration (in words) (MM.1S cells [2]; MM.1S cells incubated with test compound 5, 15, 60 min): rapidly formed inside the cells; Extracellular concentration (in words) (MM.1S cells [2]; media of MM.1S cells incubated with test compound 5, 15, 60 min): low levels of it are found in the media outside the cells; DNA damage on nuclear and mitochondrial DNA (PCR band) [3]: effectively damaged both nuclear and mitochondrial DNA
CC(C)C[C@H](NC(=O)[C@@H](N)CCc1nc2cc(N(CCCl)CCCl)ccc2n1C)C(=O)O [Example 20, (2S)-2-[[(2S)-2-amino-4-[5-[bis(2-chloroethyl)amino]-1-methyl-benzimidazol-2-yl]butanoyl]amino]-4-methyl-pentanoic acid] | 5750 | DNA damage on nuclear and mitochondrial DNA (PCR band) [3]: DNA damaging effect but to a lesser degree compared to Example compounds 1, 2 and 18
CNC(=O)[C@H](CC(C)C)NC(=O)[C@@H](N)CCc1nc2cc(N(CCCl)CCCl)ccc2n1C [Example 31, (2S)-2-[[(2S)-2-amino-4-[5-[bis(2-chloroethyl)amino]-1-methyl-benzimidazol-2-yl]butanoyl]amino]-N,4-dimethyl-pentanamide] | 181 | –
CCOC(=O)[C@H](CC(C)C)NC(=O)[C@H](CCc1nc2cc(N(CCCl)CCCl)ccc2n1C)NC [Example 32, Ethyl (2S)-2-[[(2S)-4-[5-[bis(2-chloroethyl)amino]-1-methyl-benzimidazol-2-yl]-2-(methylamino)butanoyl]amino]-4-methyl-pentanoate] | 14.3 | –
CN[C@@H](CCc1nc2cc(N(CCCl)CCCl)ccc2n1C)C(=O)N[C@@H](CC(C)C)C(=O)O [Example 33, (2S)-2-[[(2S)-4-[5-[bis(2-chloroethyl)amino]-1-methyl-benzimidazol-2-yl]-2-(methylamino)butanoyl]amino]-4-methyl-pentanoic acid] | 79900 | –
CCOC(=O)[C@H](CC(C)C)NC(=O)[C@H](Cc1nc2cc(N(CCCl)CCCl)ccc2n1C)NC(C)=O [Example 35, Ethyl (2S)-2-[[(2S)-2-acetamido-3-[5-[bis(2-chloroethyl)amino]-1-methyl-benzimidazol-2-yl]propanoyl]amino]-4-methyl-pentanoate] | 86.7 | –
CCOC(=O)[C@H](Cc1ccc(F)cc1)NC(=O)[C@H](Cc1nc2cc(N(CCCl)CCCl)ccc2n1C)NC(C)=O [Example 36, Ethyl (2S)-2-[[(2S)-2-acetamido-3-[5-[bis(2-chloroethyl)amino]-1-methyl-benzimidazol-2-yl]propanoyl]amino]-3-(4-fluorophenyl)propanoate] | 57.5 | –
CCOC(=O)[C@@H](N)CCc1nc2cc(N(CCCl)CCCl)ccc2n1C.Cl.Cl [Example 38, Ethyl (2S)-2-amino-4-[5-[bis(2-chloroethyl)amino]-1-methyl-benzimidazol-2-yl]butanoate] | 52 | IC50 (MM.1S cells [1]; read-out: Cytotoxicity IC50, MM.1S): 52 nM; IC50 (U937): 25.3 nM; IC50 (RPMI-8226): 676 nM; IC50 (SK-MM-1): 175 nM; IC50 (DOHH-2): 28.1 nM; IC50 (HG-3): 49.8 nM; IC50 (SC-1): 77.2 nM; IC50 (SU-DHL-8): 71.4 nM; IC50 (Toledo): 16.2 nM; DNA damage on nuclear and mitochondrial DNA (PCR band) [3]: effectively damaged both nuclear and mitochondrial DNA
Cn1c(CC[C@H](N)C(=O)N[C@@H](Cc2ccc(F)cc2)C(=O)O)nc2cc(N(CCCl)CCCl)ccc21 [Example 39, (2S)-2-[[(2S)-2-Amino-4-[5-[bis(2-chloroethyl)amino]-1-methyl-benzimidazol-2-yl]butanoyl]amino]-3-(4-fluorophenyl)propanoic acid] | > 2000 | –
CC(C)C[C@H](NC(=O)[C@@H](N)CCc1nc2cc(N(CCCl)CCCl)ccc2n1-c1ccccc1)C(=O)O [Example 40, (2S)-2-[[(2S)-2-Amino-4-[5-[bis(2-chloroethyl)amino]-1-phenyl-benzimidazol-2-yl]butanoyl]amino]-4-methyl-pentanoic acid] | 7180 | –
N[C@@H](CCc1nc2cc(N(CCCl)CCCl)ccc2n1-c1ccccc1)C(=O)O [Example 41, (2S)-2-Amino-4-[5-[bis(2-chloroethyl)amino]-1-phenyl-benzimidazol-2-yl]butanoic acid] | 16500 | –
CCOC(=O)[C@@H](CC(C)C)NC(=O)[C@@H](N)CCc1nc2cc(N(CCCl)CCCl)ccc2n1C [Example 45, Ethyl (2R)-2-[[(2S)-2-amino-4-[5-[bis(2-chloroethyl)amino]-1-methyl-benzimidazol-2-yl]butanoyl]amino]-4-methyl-pentanoate] | 512 | –
CCOC(=O)[C@H](CC(C)C)NC(=O)[C@H](N)CCc1nc2cc(N(CCCl)CCCl)ccc2n1C [Example 46, Ethyl (2S)-2-[[(2R)-2-amino-4-[5-[bis(2-chloroethyl)amino]-1-methyl-benzimidazol-2-yl]butanoyl]amino]-4-methyl-pentanoate] | 59.1 | –
CCOC(=O)[C@@H](CC(C)C)NC(=O)[C@H](N)CCc1nc2cc(N(CCCl)CCCl)ccc2n1C [Example 47, Ethyl (2R)-2-[[(2R)-2-amino-4-[5-[bis(2-chloroethyl)amino]-1-methyl-benzimidazol-2-yl]butanoyl]amino]-4-methyl-pentanoate] | 1710 | –
CCOC(=O)[C@H](CC(C)C)NC(=O)[C@@H](N)CCc1nc2cc(N(CCCl)CCCl)cnc2n1C [Example 48, Ethyl (2S)-2-[[(2S)-2-amino-4-[6-[bis(2-chloroethyl)amino]-3-methyl-imidazo[4,5-b]pyridin-2-yl]butanoyl]amino]-4-methyl-pentanoate] | 205 | –
